The values that follow come from patent US20240336596A1, “PARP7 INHIBITOR AND USE THEREOF” (NOVOSTAR PHARMACEUTICALS, LTD., priority 2022, published 2024).

The structures appear in SMILES notation. Some results are limits rather than exact numbers.

Assay [1] concerns the target T1, recombinant human PARP7 protein (Homo sapiens, UniProt Q7Z3E1).
T1 construct: purchased Abcam ab271651
T1 sequence (Q7Z3E1 1-657): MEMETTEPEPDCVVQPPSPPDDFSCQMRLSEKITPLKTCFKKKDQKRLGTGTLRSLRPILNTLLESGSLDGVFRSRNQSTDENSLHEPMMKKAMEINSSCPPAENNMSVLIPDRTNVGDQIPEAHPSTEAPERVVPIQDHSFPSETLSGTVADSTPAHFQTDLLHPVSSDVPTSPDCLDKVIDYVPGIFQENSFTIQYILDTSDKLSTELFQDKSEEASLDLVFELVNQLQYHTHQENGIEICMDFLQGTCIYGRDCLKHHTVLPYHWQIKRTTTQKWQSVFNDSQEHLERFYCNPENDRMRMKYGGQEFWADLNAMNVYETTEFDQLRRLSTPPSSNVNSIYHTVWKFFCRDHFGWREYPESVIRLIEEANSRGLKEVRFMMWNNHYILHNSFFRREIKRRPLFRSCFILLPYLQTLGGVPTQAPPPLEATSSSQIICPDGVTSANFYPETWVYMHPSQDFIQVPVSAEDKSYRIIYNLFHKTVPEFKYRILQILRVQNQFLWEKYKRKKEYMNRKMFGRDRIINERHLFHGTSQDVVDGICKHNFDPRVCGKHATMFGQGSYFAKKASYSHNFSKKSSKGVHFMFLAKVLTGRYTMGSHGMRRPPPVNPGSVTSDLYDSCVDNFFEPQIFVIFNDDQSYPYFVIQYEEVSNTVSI
Put plainly: Inhibition of PARP7 biological enzyme activity (histone-coated plate, Biotin-NAD+, chemiluminescence). It is filed as biochemical. The conditions noted are these: recombinant human PARP7, Biotin-NAD+ substrate. The protocol:
The recombinant human PARP7 protein kit (Abcam, catalog number ab271651) was used for the assay. According to the kit instructions, 30 μL of histone coating solution (1.5 μg/mL) was first applied to the 384 well holes of the reaction plate and coated at 4° C. for 2 hours. Then, the histone coated solution was washed off, and 50 μL sealing buffer was added to each well, and the sealing buffer was washed off after incubation at 25° C. for 60 minutes. 1000 times the concentration of the compound was 10 configured and diluted from 1 mM to 0.05 μM, and the configured compound was transferred to 384-well plates with 25 nL per well using Echo. The final concentration of the compound in the reaction system was 1000 nM, 333.33 nM, 111.11 nM, 37.03 nM, 12.34 nM, 4.11 nM, 1.37 nM, 0.45 nM, 0.15 nM, 0.05 nM, which was used as the test hole. At the same time, 25 nL DMSO was added to the negative control well and the positive control well. The PARP7 enzyme solution with a concentration of 1.67 times was prepared, and the PARP7 enzyme solution was added to the test hole and the positive control hole with 15 μL each, while the negative control hole was added with 15 μL base Buffer, and incubated at 25° C. for 15 minutes. Then 10 μL 2.5 times Biotin-NAD+ substrate solution was added and incubated at 25° C. for 60 min. After the reaction solution was washed off, the 384-well reaction plates were treated with closed buffer solution diluted with streptavidin-HRP (1:500), each well was 30 μL, and incubated at 25° C. for 30 min. After the HRP buffer was washed off, 30 μL HRP chemiluminescent substrate mixture was added to each well, and the luminescence signal (RLU) of each well was detected by Envision. Calculation formula: Inhibition rate %=(average positive control-RLU compound)/(average positive control-average negative control))*100%. The dose-response curves of each compound were fitted by GraphPad Prism 8 to get IC50 values. IC50 values less than 0.01 μM are labeled as “+++”, IC50 values from 0.01 to 0.1 µM are labeled as “++”, and IC50 values greater than 0.1 to 10.0 μM are labeled as “+”.

The subject of another assay is NCI-H1373 cancer cells. Briefly: NCI-H1373 cancer cell growth inhibition (CellTiter-Glo, 144 hours). It is filed as cell-based. As to conditions: Homo sapiens, 144 hours culture. On the procedure: Promega CellTiter-Glo cell activity assay kit (Item No.: Promege-G7573) was used to determine the cell activity. 90 μL NCI-H1373 cell suspension (ATCC, catalog No. CRL-5866, batch No. 58078716) was spread into the pores of the 96-well plate with 3500 cells per well. After 24 hours, the 10 μL prepared 10× compound working solution was added into the pores of the cell culture plate with a final concentration of 10 μM. 3.3333 μM, 1.1111 μM, 0.3704 μM, 0.1235 μM, 0.0412 μM, 0.0137 μM, 0.0046 μM, 0.0015 μM, 0.0005 μM, 10 μL DMSO was added to the solvent control, and the final concentration of DMSO was 0.2%. The 0-day plates were collected for analysis, and after 144 hours of culture, the growth condition of cells was detected according to the instructions of CellTiter-Glo cell activity assay kit. Add 50 μL of CellTiter-Glo working liquid into each hole of the cell culture plate, shake the plates in the dark for 2 minutes until cell lysis, and place at room temperature for 10 minutes to detect the luminous signal (RUL) of each cell hole on the 2104En Vision board reader.
Calculation formula: Growth inhibition rate %=(1−(RLU compound−RLU Day0)/(RLU solvent control−RLU Day0))*100%. The dose-response curves of each compound were fitted by GraphPad Prism 8 to obtain IC50 values.
For the matter, IC50 values less than 0.1 μM are labeled “+++”, values from 0.1 to 1 μM are labeled “++”, and values greater than 1 to 10 μM are labeled “+”.

`C[C@@H]1CN(c2ccc(C#N)cn2)CCN1C(=O)CO/N=C/[C@H](C)Nc1cn[nH]c(=O)c1C(F)(F)F` [Example 13, 6-((R)-3-methyl-4-(2-(((E)-((S)-2-((6-oxo-5-(trifluoromethyl)-1,6-dihydropyridazin-4-yl)amino)propylidene)amino)oxy)acetyl)piperazin-1-yl)nicotinonitrile]: the IC50 was below 10 nM in assay [1] and 1000 to 10000 nM in the assay with NCI-H1373 cancer cells.

As for `C[C@@H](/C=N/OCCC1CCN(c2ncc(C(F)(F)F)cn2)CC1)Nc1cn[nH]c(=O)c1C(F)(F)F` [Example 14, (S,E)-2-((6-oxo-5-(trifluoromethyl)-1,6-dihydropyridazin-4-yl)amino)propanal O-(2-(1-(5-(trifluoromethyl)pyrimidin-2-yl)piperidin-4-yl)ethyl) oxime], the IC50 was below 10 nM in assay [1] and 1000 to 10000 nM with NCI-H1373 cancer cells.

On to `C[C@@H](CO/N=C/C(=O)N1CCN(c2ncc(C(F)(F)F)cn2)CC1)Nc1cn[nH]c(=O)c1C(F)(F)F` [Example 15, (S,E)-2-oxo-2-(4-(5-(trifluoromethyl)pyrimidin-2-yl)piperazin-1-yl)acetaldehyde O-(2-((6-oxo-5-(trifluoromethyl)-1,6-dihydropyridazin-4-yl)amino)propyl) oxime], for which the IC50 in assay [1] was below 10 nM; in the assay with NCI-H1373 cancer cells, 100 to 1000 nM.

Regarding `CC(/C=N/OCC(=O)N1CCN(c2ncc(C(F)(F)F)cn2)CC1)c1cccc2c(=O)[nH]ncc12` (stereo not drawn) [Example 18, (E)-2-(1-oxo-1,2-dihydrophthalazin-5-yl)propanal O-(2-oxo-2-(4-(5-(trifluoromethyl)pyrimidin-2-yl)piperazin-1-yl)ethyl) oxime], the half-maximal inhibitory concentration (IC50) in assay [1] was below 10 nM; in the assay on NCI-H1373 cancer cells, 1000 to 10000 nM.

Consider `CC(/C=N/OCC(=O)N1CCN(c2ccc(C(F)(F)F)cn2)CC1)c1cccc2c(=O)[nH]ncc12` (stereo not drawn) [Example 19, (E)-2-(1-oxo-1,2-dihydrophthalazin-5-yl)propanal O-(2-oxo-2-(4-(5-(trifluoromethyl)pyridin-2-yl)piperazin-1-yl)ethyl) oxime], for which the IC50 was below 10 nM in assay [1] and 1000 to 10000 nM in the assay with NCI-H1373 cancer cells.

In the case of `C[C@@H](CONC(=O)C(F)C1=CCN(c2ncc(C(F)(F)F)cn2)CC1)Nc1cn[nH]c(=O)c1C(F)(F)F` (stereo partly drawn) [Example 22, 2-fluoro-N—((S)-2-((6-oxo-5-(trifluoromethyl)-1,6-dihydropyridazin-4-yl)amino)propoxy)-2-(1-(5-(trifluoromethyl)pyrimidin-2-yl)-1,2,3,6-tetrahydropyridin-4-yl) acetamide], the values for the IC50 (in assay [1]; in the assay with NCI-H1373 cancer cells) were below 10 nM and below 100 nM, respectively.

`C[C@@H](CONC(=O)/C=C1\CCN(c2ncc(C(F)(F)F)cn2)CC1F)Nc1cn[nH]c(=O)c1C(F)(F)F` (stereo partly drawn) [Example 23, (E)-2-(3-fluoro-1-(5-(trifluoromethyl)pyrimidin-2-yl)piperidin-4-ylidene)-N—((S)-2-((6-oxo-5-(trifluoromethyl)-1,6-dihydropyridazin-4-yl)amino)propoxy)acetamide]: the IC50 was below 10 nM in assay [1] and 100 to 1000 nM with NCI-H1373 cancer cells.

As to `C[C@@H](CONC(=O)/C=C1/CCN(c2ncc(C(F)(F)F)cn2)CC1F)Nc1cn[nH]c(=O)c1C(F)(F)F` (stereo partly drawn) [Example 24, (Z)-2-(3-fluoro-1-(5-(trifluoromethyl)pyrimidin-2-yl)piperidin-4-ylidene)-N—((S)-2-((6-oxo-5-(trifluoromethyl)-1,6-dihydropyridazin-4-yl)amino)propoxy)acetamide], the figures for the IC50 (in assay [1]; with NCI-H1373 cancer cells) were below 10 nM and 100 to 1000 nM, respectively.

On to `C[C@@H](CONC(=O)CC1=CCN(c2ncc(-c3ccccc3F)cn2)CC1)Nc1cn[nH]c(=O)c1C(F)(F)F` [Example 26, (S)-2-(1-(5-(2-fluorophenyl)pyrimidin-2-yl)-1,2,3,6-tetrahydropyridin-4-yl)-N-(2-((6-oxo-5-(trifluoromethyl)-1,6-dihydropyridazin-4-yl)amino)propoxy)acetamide], for which the IC50 in assay [1] was below 10 nM; in the assay with NCI-H1373 cancer cells, below 100 nM.

With `CC1CN(c2ncc(-c3ccccc3F)cn2)CC=C1CC(=O)NOC[C@H](C)Nc1cn[nH]c(=O)c1C(F)(F)F` (stereo partly drawn) [Example 27, 2-(1-(5-(2-fluorophenyl)pyrimidin-2-yl)-3-methyl-1,2,3,6-tetrahydropyridin-4-yl)-N—((S)-2-((6-oxo-5-(trifluoromethyl)-1,6-dihydropyridazin-4-yl)amino)propoxy)acetamide], the IC50 in assay [1] is below 10 nM; in the assay on NCI-H1373 cancer cells, 100 to 1000 nM.

`CC1=C(CC(=O)NOC[C@H](C)Nc2cn[nH]c(=O)c2C(F)(F)F)CCN(c2ncc(-c3ccccc3F)cn2)C1` [Example 28, (S)-2-(1-(5-(2-fluorophenyl)pyrimidin-2-yl)-5-methyl-1,2,3,6-tetrahydropyridin-4-yl)-N-(2-((6-oxo-5-(trifluoromethyl)-1,6-dihydropyridazin-4-yl)amino)propoxy)acetamide]: the IC50 in assay [1] is below 10 nM; in the assay with NCI-H1373 cancer cells it was 100 to 1000 nM.

As to `C[C@@H](CONC(=O)CC1=CCN(c2ncc(C3CC3)cn2)CC1)Nc1cn[nH]c(=O)c1C(F)(F)F` [Example 29, (S)-2-(1-(5-cyclopropylpyrimidin-2-yl)-1,2,3,6-tetrahydropyridin-4-yl)-N-(2-((6-oxo-5-(trifluoromethyl)-1,6-dihydropyridazin-4-yl)amino)propoxy)acetamide], the IC50 was below 10 nM in assay [1] and below 100 nM with NCI-H1373 cancer cells.

As to `CC1CN(c2ncc(C3CC3)cn2)CC=C1CC(=O)NOC[C@H](C)Nc1cn[nH]c(=O)c1C(F)(F)F` (stereo partly drawn) [Example 30, 2-(1-(5-cyclopropylpyrimidin-2-yl)-3-methyl-1,2,3,6-tetrahydropyridin-4-yl)-N—((S)-2-((6-oxo-5-(trifluoromethyl)-1,6-dihydropyridazin-4-yl)amino)propoxy)acetamide], the 50% inhibitory concentration (IC50) in assay [1] is below 10 nM; with NCI-H1373 cancer cells, below 100 nM.

With `CC(=O)c1c(N[C@@H](C)CONC(=O)CC2CCN(c3ncc(C(F)(F)F)cn3)CC2)cn[nH]c1=O` [Example 36, (S)—N-(2-((5-acetyl-6-oxo-1,6-dihydropyridazin-4-yl)amino)propoxy)-2-(1-(5-(trifluoromethyl)pyrimidin-2-yl)piperidin-4-yl)acetamide], the IC50 in assay [1] was below 10 nM; in the assay with NCI-H1373 cancer cells, below 100 nM.

In the case of `C[C@@H](CONC(=O)CC1CCN(c2ncc3cc[nH]c3n2)CC1)Nc1cn[nH]c(=O)c1C(F)(F)F` [Example 38, (S)-2-(1-(7H-pyrrolo(2,3-d)pyrimidin-2-yl)piperidin-4-yl)-N-(2-((6-oxo-5-(trifluoromethyl)-1,6-dihydropyridazin-4-yl)amino)propoxy)acetamide], the IC50 in assay [1] was below 10 nM; with NCI-H1373 cancer cells it was 100 to 1000 nM.
